Measured values from ChEMBL document CHEMBL1201862, “PubChem BioAssay data set” (2004).
Counter-ions that a name gives are not always drawn.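 Test compounds were applied to cells in 96-well plates for 48 hours at 5 doses. Abbreviation: GI50, concentration required for 50% inhibition of growth.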 The source made the active and inactive calls. Cut-off read from the data, not from the text of the source: active = GI50 up to about 1.1 µM and inactive = higher.

Legend:
Test in all cases: NCI tumour cell line growth inhibition, 48 h
SF-295 = test system: SF-295
CCRF-CEM = test system: CCRF-CEM
OVCAR-3 = test system: OVCAR-3
SF-268 = test system: SF-268
MDA-MB-435 = test system: MDA-MB-435
MDA-N = test system: MDA-N
PC-3 = test system: PC-3
BT-549 = test system: BT-549
SNB-19 = test system: SNB-19
SW-620 = test system: SW-620
UACC-62 = test system: UACC-62
MOLT-4 = test system: MOLT-4
NCI-H23 = test system: NCI-H23
HOP-92 = test system: HOP-92
OVCAR-4 = test system: OVCAR-4
KM12 = test system: KM12
A498 = test system: A498
K562 = test system: K562
DU-145 = test system: DU-145
MDA-MB-231 = test system: MDA-MB-231

Row | SMILES | GI50 (SF-295) | GI50 (CCRF-CEM) | GI50 (OVCAR-3) | GI50 (SF-268) | GI50 (MDA-MB-435) | GI50 (MDA-N) | GI50 (PC-3) | GI50 (BT-549) | GI50 (SNB-19) | GI50 (SW-620) | GI50 (UACC-62) | GI50 (MOLT-4) | GI50 (NCI-H23) | GI50 (HOP-92) | GI50 (OVCAR-4) | GI50 (KM12) | GI50 (A498) | GI50 (K562) | GI50 (DU-145) | GI50 (MDA-MB-231)
1 | COc1ccc(OC)c(NC(=O)c2c(Cl)c(Cl)c(Cl)c(Cl)c2-c2nc3ccccc3[nH]2)c1 | > 100 µM (inactive) | 49.2 µM (inactive) | > 100 µM (inactive) | > 100 µM (inactive) | > 100 µM (inactive) | > 100 µM (inactive) | > 100 µM (inactive) | > 100 µM (inactive) | > 100 µM (inactive) | > 100 µM (inactive) | > 100 µM (inactive) | 56.2 µM (inactive) | > 100 µM (inactive) | > 100 µM (inactive) | > 100 µM (inactive) | > 100 µM (inactive) | > 100 µM (inactive) | > 100 µM (inactive) | > 100 µM (inactive) | –
2 | CCN1C(=O)C(=C/C=C/C=C2/N(C)c3ccccc3C2(C)C)C(=O)N(CC)C1=S | 61.5 µM (inactive) | > 100 µM (inactive) | 36.4 µM (inactive) | 99.3 µM (inactive) | > 100 µM (inactive) | > 100 µM (inactive) | – | 13.6 µM (inactive) | > 100 µM (inactive) | > 100 µM (inactive) | > 100 µM (inactive) | – | > 100 µM (inactive) | > 100 µM (inactive) | 33 µM (inactive) | > 100 µM (inactive) | > 100 µM (inactive) | 58.6 µM (inactive) | 64.7 µM (inactive) | > 100 µM (inactive)
3 | Cc1ccc(S(=O)(=O)N2CCCSCCSCCCN(S(=O)(=O)c3ccc(C)cc3)CC2)cc1 | > 100 µM (inactive) | – | > 100 µM (inactive) | > 100 µM (inactive) | > 100 µM (inactive) | > 100 µM (inactive) | – | > 100 µM (inactive) | > 100 µM (inactive) | > 100 µM (inactive) | > 100 µM (inactive) | > 100 µM (inactive) | > 100 µM (inactive) | – | > 100 µM (inactive) | > 100 µM (inactive) | > 100 µM (inactive) | – | > 100 µM (inactive) | > 100 µM (inactive)
4 | CCCn1c(=O)c2nn3c(=O)n(CCC)c(=O)c3nn2c1=O | > 100 µM (inactive) | > 100 µM (inactive) | > 100 µM (inactive) | > 100 µM (inactive) | > 100 µM (inactive) | > 100 µM (inactive) | > 100 µM (inactive) | > 100 µM (inactive) | > 100 µM (inactive) | > 100 µM (inactive) | > 100 µM (inactive) | > 100 µM (inactive) | > 100 µM (inactive) | > 100 µM (inactive) | > 100 µM (inactive) | > 100 µM (inactive) | – | > 100 µM (inactive) | > 100 µM (inactive) | –
5 | O=C1CCC2SC1CCC2=O | > 100 µM (inactive) | > 100 µM (inactive) | > 100 µM (inactive) | > 100 µM (inactive) | > 100 µM (inactive) | – | > 100 µM (inactive) | > 100 µM (inactive) | > 100 µM (inactive) | > 100 µM (inactive) | – | > 100 µM (inactive) | > 100 µM (inactive) | > 100 µM (inactive) | > 100 µM (inactive) | > 100 µM (inactive) | > 100 µM (inactive) | > 100 µM (inactive) | > 100 µM (inactive) | > 100 µM (inactive)
6 | COc1ccc2nc3n(c2c1)C(c1c(F)cccc1Cl)SC3 (centres undefined) | > 100 µM (inactive) | > 100 µM (inactive) | > 100 µM (inactive) | – | > 100 µM (inactive) | > 100 µM (inactive) | > 100 µM (inactive) | > 100 µM (inactive) | > 100 µM (inactive) | > 100 µM (inactive) | > 100 µM (inactive) | > 100 µM (inactive) | > 100 µM (inactive) | 41.8 µM (inactive) | > 100 µM (inactive) | > 100 µM (inactive) | > 100 µM (inactive) | > 100 µM (inactive) | > 100 µM (inactive) | –
7 | CN(/N=C/c1ccccn1)C1=NCCCN1 | > 100 µM (inactive) | > 100 µM (inactive) | > 100 µM (inactive) | > 100 µM (inactive) | > 100 µM (inactive) | > 100 µM (inactive) | > 100 µM (inactive) | > 100 µM (inactive) | > 100 µM (inactive) | > 100 µM (inactive) | > 100 µM (inactive) | > 100 µM (inactive) | > 100 µM (inactive) | > 100 µM (inactive) | > 100 µM (inactive) | > 100 µM (inactive) | 91.6 µM (inactive) | > 100 µM (inactive) | – | > 100 µM (inactive)
8 | Cc1ccc(S(=O)(=O)N/N=C2/C(=O)Nc3c(Cl)cc(Cl)cc32)cc1 | 35.8 µM (inactive) | 55.6 µM (inactive) | 60.3 µM (inactive) | – | 51.6 µM (inactive) | 68.9 µM (inactive) | 78.3 µM (inactive) | 86.7 µM (inactive) | > 100 µM (inactive) | 99.1 µM (inactive) | 62.5 µM (inactive) | 38.5 µM (inactive) | 63.1 µM (inactive) | > 100 µM (inactive) | > 100 µM (inactive) | > 100 µM (inactive) | 55.5 µM (inactive) | 72.1 µM (inactive) | – | > 100 µM (inactive)
9 | CC(=O)OCC1OC(OC(C)=O)C(Nc2ncc(-c3ccc(C)cc3)s2)C(OC(C)=O)C1OC(C)=O (centres undefined) | 22.9 µM (inactive) | 4.4 µM (inactive) | 19.3 µM (inactive) | 16.5 µM (inactive) | 15.8 µM (inactive) | 18.4 µM (inactive) | 15.9 µM (inactive) | 18.6 µM (inactive) | 21.4 µM (inactive) | 13.7 µM (inactive) | 14.4 µM (inactive) | 11 µM (inactive) | 12 µM (inactive) | – | 16.9 µM (inactive) | > 10 µM (inactive) | – | 15.7 µM (inactive) | 31.3 µM (inactive) | 19.9 µM (inactive)
10 | CN(C)CCC=C1c2ccccc2C=Cc2ccccc21 [CYCLOBENZAPRINE HYDROCHLORIDE] | 17.2 µM (inactive) | – | 15.5 µM (inactive) | 15.8 µM (inactive) | 16.7 µM (inactive) | – | 16.6 µM (inactive) | 17.4 µM (inactive) | 19.8 µM (inactive) | 17.1 µM (inactive) | 16.6 µM (inactive) | 16.8 µM (inactive) | 18.7 µM (inactive) | 15.6 µM (inactive) | 23.1 µM (inactive) | 18.5 µM (inactive) | 15.8 µM (inactive) | 18.5 µM (inactive) | 18 µM (inactive) | 17.3 µM (inactive)
11 | COc1cc(COC(=O)N[C@H](C(=O)O)C(C)(C)C)c([N+](=O)[O-])cc1OC | > 100 µM (inactive) | > 100 µM (inactive) | > 100 µM (inactive) | > 100 µM (inactive) | > 100 µM (inactive) | > 100 µM (inactive) | > 100 µM (inactive) | > 100 µM (inactive) | > 100 µM (inactive) | > 100 µM (inactive) | > 100 µM (inactive) | > 100 µM (inactive) | > 100 µM (inactive) | > 100 µM (inactive) | – | > 100 µM (inactive) | > 100 µM (inactive) | > 100 µM (inactive) | > 100 µM (inactive) | –
12 | COc1ccc(C(O)c2nccn2C)c(OC)c1 (centres undefined) | > 100 µM (inactive) | > 100 µM (inactive) | > 100 µM (inactive) | > 100 µM (inactive) | – | > 100 µM (inactive) | > 100 µM (inactive) | > 100 µM (inactive) | > 100 µM (inactive) | > 100 µM (inactive) | > 100 µM (inactive) | > 100 µM (inactive) | > 100 µM (inactive) | > 100 µM (inactive) | > 100 µM (inactive) | > 100 µM (inactive) | – | > 100 µM (inactive) | > 100 µM (inactive) | –
13 | Cc1cc(S(=O)(=O)[N-]/C(=N/S(=O)(=O)c2ccc(Cl)cc2)[n+]2ccc(N(C)C)cc2)c(SCC(=O)O)cc1Cl | 30.7 µM (inactive) | 45.3 µM (inactive) | 69.7 µM (inactive) | > 100 µM (inactive) | > 100 µM (inactive) | – | 69.5 µM (inactive) | > 100 µM (inactive) | > 100 µM (inactive) | 64.1 µM (inactive) | 91.4 µM (inactive) | 34.7 µM (inactive) | > 100 µM (inactive) | 24.6 µM (inactive) | 34.8 µM (inactive) | > 100 µM (inactive) | 45.4 µM (inactive) | 37.8 µM (inactive) | > 100 µM (inactive) | 83.4 µM (inactive)
14 | CN(C)NC1=NS(=O)(=O)c2cc3c(=O)n(C)[nH]c3cc2S1 | > 10 µM (inactive) | > 10 µM (inactive) | > 10 µM (inactive) | > 10 µM (inactive) | – | > 10 µM (inactive) | > 10 µM (inactive) | > 10 µM (inactive) | > 10 µM (inactive) | > 10 µM (inactive) | – | > 10 µM (inactive) | > 10 µM (inactive) | > 10 µM (inactive) | > 10 µM (inactive) | > 10 µM (inactive) | > 10 µM (inactive) | > 10 µM (inactive) | > 10 µM (inactive) | –
15 | CCCCc1c(N(C)C)c(OC(C)=O)c(-c2cn(C)c3ccccc23)oc1=O | 25.5 µM (inactive) | 33.4 µM (inactive) | 25.9 µM (inactive) | 29.3 µM (inactive) | 19.1 µM (inactive) | 18.1 µM (inactive) | 18.6 µM (inactive) | 28.3 µM (inactive) | 28.7 µM (inactive) | 23.6 µM (inactive) | 14.1 µM (inactive) | 47.9 µM (inactive) | 22.5 µM (inactive) | < 0.01 µM (active) | 33.7 µM (inactive) | 14.2 µM (inactive) | 28.8 µM (inactive) | – | 54.6 µM (inactive) | –
